From US20070253980A1, “New pharmaceutical composition from natural materials for regulating immunity, its preparation method and use” (priority 2006, published 2007)

Experiments:
C8166 cells [1] = assay: Cytotoxic effect on C8166 cells (MTT); type: cell-based; conditions: three days, one value per date of experiment
C8166 cells [2] = assay: Protective experiment: survival rate of normal cells (MTT); type: cell-based; conditions: normal C8166 cells in protective experiment, three days
Protocol: 50 µl medium was added into half of the holes on the culture plate and 50 µl diluted supernatant fluid of HIV-1, in which the value of M.O.I was 0.0089, was added into the other half of the holes on the culture plate. At the same time, the blank control holes without the drug (the negative control) were set and the control culture holes with positive drug AZT (the positive control) were set too. They were put into 5% CO2 incubator under 37 °C for three days. The survival rate of cells was determined by MTT method. […] The following formulae were used to calculate the survival rate of normal cells caused by the drug and the protective rate of the drug for HIV-1-infected cells. Survival rate of normal cells(%)=OD value of the experimental hole/OD value of negative control hole□100% Protective rate of infected cells(%)=(OD value of the experimental hole−OD value of positive control hole)/(OD value of negative control hole−OD value of positive control hole)□100%

Cc1cn([C@H]2C[C@H](N=[N+]=[N-])[C@@H](CO)O2)c(=O)[nH]c1=O [AZT]
TC50 (C8166 cells [1]): >50 µg/mL | TC50 (C8166 cells [2]): >50 µg/mL
